Reference: patent US12139487B2, “Compounds and uses thereof” (Foghorn Therapeutics Inc., priority 2022, dated 2024)

Key:
[1] = target: T1, BRM (Homo sapiens, UniProt P51531); assay: ATPase catalytic activity assay (ADP-Glo), BRM; format: biochemical; conditions: Table 10; for Ratio (BRG1 IC50 (μM) divided by BRM IC50 (μM)): ATPase assay, selectivity BRG1/BRM; for IC50: ATPase catalytic activity assay (ADP-Glo)
T1 construct: made in house; host or cells: High Five insect cells
Method in brief: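 ADP-Glo luminescence measures ADP produced by BRM ATPase (30 nM) during 1 h at room temperature. ATP is 400 μM, with 20 nM salmon sperm DNA as cofactor. Buffer: 20 mM Tris pH 8, 20 mM MgCl2, 50 mM NaCl, 0.1% Tween-20, 1 mM DTT.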

[2] = target: T2, BRG-1 (Homo sapiens, UniProt P51532); assay: ATPase catalytic activity assay (ADP-Glo), BRG-1; format: biochemical; conditions: Table 10, read-out: BRG1 IC50
T2 construct: made in house; host or cells: High Five insect cells
T2 sequence (P51532 whole entry): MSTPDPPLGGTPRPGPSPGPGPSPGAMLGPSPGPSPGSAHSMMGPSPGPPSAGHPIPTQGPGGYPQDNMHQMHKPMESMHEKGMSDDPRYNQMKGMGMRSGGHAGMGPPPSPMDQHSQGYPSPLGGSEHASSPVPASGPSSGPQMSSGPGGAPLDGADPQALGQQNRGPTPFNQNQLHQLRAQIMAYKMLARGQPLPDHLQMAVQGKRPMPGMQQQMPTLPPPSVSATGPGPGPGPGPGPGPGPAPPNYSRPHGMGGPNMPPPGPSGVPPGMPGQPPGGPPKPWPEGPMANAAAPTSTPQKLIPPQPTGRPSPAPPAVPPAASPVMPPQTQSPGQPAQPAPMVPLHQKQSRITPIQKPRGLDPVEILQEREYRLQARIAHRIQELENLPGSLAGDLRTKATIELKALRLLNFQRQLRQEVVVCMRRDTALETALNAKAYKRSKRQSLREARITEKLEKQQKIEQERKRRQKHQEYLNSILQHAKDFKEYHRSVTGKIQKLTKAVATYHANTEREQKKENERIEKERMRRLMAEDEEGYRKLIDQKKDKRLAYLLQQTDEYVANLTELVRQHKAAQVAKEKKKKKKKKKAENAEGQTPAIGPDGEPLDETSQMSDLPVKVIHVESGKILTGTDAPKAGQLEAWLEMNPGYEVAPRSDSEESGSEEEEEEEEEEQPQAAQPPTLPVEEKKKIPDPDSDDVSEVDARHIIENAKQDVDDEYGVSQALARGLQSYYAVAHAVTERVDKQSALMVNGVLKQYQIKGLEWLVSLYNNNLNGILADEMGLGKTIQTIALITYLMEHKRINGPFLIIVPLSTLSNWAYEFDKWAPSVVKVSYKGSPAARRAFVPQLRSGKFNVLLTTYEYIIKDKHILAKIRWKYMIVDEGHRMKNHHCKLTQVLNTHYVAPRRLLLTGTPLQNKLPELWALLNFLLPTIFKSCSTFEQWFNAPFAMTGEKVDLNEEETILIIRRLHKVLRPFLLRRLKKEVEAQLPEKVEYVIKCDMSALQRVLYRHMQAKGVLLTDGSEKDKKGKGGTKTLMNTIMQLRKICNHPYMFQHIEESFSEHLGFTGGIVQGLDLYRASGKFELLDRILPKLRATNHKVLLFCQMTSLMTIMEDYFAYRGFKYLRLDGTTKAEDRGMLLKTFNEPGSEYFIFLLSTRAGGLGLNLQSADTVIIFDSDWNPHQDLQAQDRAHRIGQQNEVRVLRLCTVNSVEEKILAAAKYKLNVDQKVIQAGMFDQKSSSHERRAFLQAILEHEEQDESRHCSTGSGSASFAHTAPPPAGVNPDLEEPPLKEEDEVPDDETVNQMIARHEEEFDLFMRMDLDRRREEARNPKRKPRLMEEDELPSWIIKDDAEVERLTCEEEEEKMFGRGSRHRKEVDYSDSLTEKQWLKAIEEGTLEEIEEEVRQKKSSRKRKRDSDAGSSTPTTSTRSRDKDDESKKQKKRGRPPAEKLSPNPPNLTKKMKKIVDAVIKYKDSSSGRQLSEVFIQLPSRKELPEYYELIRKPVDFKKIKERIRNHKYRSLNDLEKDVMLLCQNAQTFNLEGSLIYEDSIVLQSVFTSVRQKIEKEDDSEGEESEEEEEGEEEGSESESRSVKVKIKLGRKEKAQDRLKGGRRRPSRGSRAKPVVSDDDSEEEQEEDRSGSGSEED
Method in brief: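 Luminescence read-out: ADP formed by BRG-1 ATPase is converted to ATP and detected by luciferase. Residual ATP is first removed with ADP-Glo Reagent for 40 min at RT; detection reagent is then incubated 60 min at RT before reading.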

T1 sequence (P51531 whole entry): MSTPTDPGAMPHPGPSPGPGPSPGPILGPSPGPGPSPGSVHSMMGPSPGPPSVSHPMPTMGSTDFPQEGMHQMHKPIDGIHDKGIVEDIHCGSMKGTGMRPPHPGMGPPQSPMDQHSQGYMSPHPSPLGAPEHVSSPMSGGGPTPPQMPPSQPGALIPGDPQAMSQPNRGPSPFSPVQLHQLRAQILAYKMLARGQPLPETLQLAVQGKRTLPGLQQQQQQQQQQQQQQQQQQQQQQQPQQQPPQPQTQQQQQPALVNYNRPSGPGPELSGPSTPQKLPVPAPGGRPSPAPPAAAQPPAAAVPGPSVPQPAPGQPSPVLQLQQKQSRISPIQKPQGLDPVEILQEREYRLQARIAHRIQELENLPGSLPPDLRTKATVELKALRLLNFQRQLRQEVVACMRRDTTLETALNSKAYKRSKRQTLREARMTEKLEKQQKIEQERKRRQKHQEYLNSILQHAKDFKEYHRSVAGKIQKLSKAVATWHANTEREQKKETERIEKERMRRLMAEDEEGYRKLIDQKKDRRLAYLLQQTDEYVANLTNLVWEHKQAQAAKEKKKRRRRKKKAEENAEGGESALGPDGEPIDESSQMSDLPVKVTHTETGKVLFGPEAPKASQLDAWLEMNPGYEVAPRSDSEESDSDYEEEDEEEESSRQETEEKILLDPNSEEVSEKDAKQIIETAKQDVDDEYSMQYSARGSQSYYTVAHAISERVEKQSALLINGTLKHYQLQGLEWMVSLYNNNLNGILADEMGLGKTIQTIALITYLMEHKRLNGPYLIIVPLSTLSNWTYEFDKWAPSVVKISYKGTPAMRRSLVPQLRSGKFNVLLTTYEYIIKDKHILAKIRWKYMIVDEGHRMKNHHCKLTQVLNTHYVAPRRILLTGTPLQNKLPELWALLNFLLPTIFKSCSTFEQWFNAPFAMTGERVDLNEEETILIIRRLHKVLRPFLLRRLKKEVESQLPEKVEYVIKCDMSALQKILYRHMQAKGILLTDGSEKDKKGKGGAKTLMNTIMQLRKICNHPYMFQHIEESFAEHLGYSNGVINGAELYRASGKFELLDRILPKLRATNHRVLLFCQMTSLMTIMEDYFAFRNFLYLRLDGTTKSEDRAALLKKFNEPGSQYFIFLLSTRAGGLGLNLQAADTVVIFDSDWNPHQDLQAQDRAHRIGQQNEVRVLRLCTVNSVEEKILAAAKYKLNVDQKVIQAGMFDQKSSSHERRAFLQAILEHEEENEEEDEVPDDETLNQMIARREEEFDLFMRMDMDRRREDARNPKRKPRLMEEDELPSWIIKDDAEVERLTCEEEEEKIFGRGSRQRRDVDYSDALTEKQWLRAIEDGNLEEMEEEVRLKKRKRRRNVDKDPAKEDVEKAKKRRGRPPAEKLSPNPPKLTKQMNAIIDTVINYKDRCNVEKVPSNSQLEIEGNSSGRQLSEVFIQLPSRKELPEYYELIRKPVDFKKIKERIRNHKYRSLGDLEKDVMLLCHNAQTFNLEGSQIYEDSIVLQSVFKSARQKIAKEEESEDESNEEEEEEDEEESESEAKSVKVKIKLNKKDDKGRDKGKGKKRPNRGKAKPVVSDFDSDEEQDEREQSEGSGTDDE

Row | Compound | Ratio (BRG1 IC50 (μM) divided by BRM IC50 (μM)) [1] | IC50 [1] [nM] | IC50 [2] [nM]
1 | CN(CC(F)F)c1cnc2c(c1)OCCN2c1ccc2cnc(CNC(=O)c3cc(F)c4c(c3)S(=O)(=O)[C@@H](F)CCO4)cc2n1 [Compound 105] | 9.68 | 3.7 | 36.7
2 | O=C(NCc1cc2nc(-c3cncc(C4CC4)n3)ccc2cn1)c1cc(F)c2c(c1)S(=O)(=O)[C@@H](F)COC2 [Compound 238] | 17.11 | 7.6 | 132
3 | O=C(NCc1cc2cc(-c3ccc(OC(F)F)c(C4CC4)n3)ccc2cn1)c1cc(F)c2c(c1)S(=O)(=O)[C@@H](F)CCO2 [Compound 179] | 10.62 | 5.6 | 59.9
4 | Cc1cc2c(-c3ccc4cnc(CNC(=O)c5cc(F)c6c(c5)S(=O)(=O)[C@@H](F)CCO6)cc4n3)ccc(F)c2n1C [Compound 68] | 13.58 | 2.7 | 36.2
5 | COc1ccc(-c2ccc3cnc(CNC(=O)c4cc(F)c5c(c4)S(=O)(=O)[C@@H](F)CCO5)cc3n2)nc1C1CC1 [Compound 181] | 29.09 | 5.7 | 146
6 | O=C(NCc1cc2nc(N3CCOc4ccc([C@H]5C[C@@H]5F)nc43)ccc2cn1)c1cc(F)c2c(c1)S(=O)(=O)[C@@H](F)COC2 [Compound 132] | 17.90 | 4.5 | 77.2
7 | [2H]C1([2H])OC([2H])([2H])[C@H](F)S(=O)(=O)c2cc(C(=O)NCc3cc4nc(N5CCOc6cc(C7CC7)cnc65)ccc4cn3)cc(F)c21 [Compound 3] | – | 0.8 | 25.2
8 | COc1cc2c(nc1C(F)F)N(c1ccc3cnc(CNC(=O)c4cc(F)c5c(c4)S(=O)(=O)[C@@H](F)CCO5)cc3n1)CCO2 [Compound 81] | 14.31 | 3 | 46.7
9 | O=C(NCc1cc2nc(N3CCOc4ccc([C@H](F)CF)nc43)ccc2cn1)c1cc(F)c2c(c1)S(=O)(=O)[C@@H](F)COC2 [Compound 62] | 28.84 | 2.6 | 79.7
10 | O=C(NCc1cc2nc(N3CCOc4ccc([C@@H]5C[C@H]5F)nc43)ccc2cn1)c1cc(F)c2c(c1)S(=O)(=O)[C@@H](F)COC2 [Compound 207] | 18.77 | 6.2 | 113

Other lines, results leading:

Row | Ratio (BRG1 IC50 (μM) divided by BRM IC50 (μM)) [1] | IC50 [1] [nM] | IC50 [2] [nM] | Compound
11 | 17.27 | 9.6 | 187 | O=C(NCc1cc2nc(-c3ccnc(C45CC(C4)C5)n3)ccc2cn1)c1cc(F)c2c(c1)S(=O)(=O)[C@@H](F)COC2 [Compound 290]
12 | 11.01 | 10.5 | 115 | O=C(NCc1cc2nc(N3CCOc4cc(C#CC5CC5)cnc43)ccc2cn1)c1cc(F)c2c(c1)S(=O)(=O)[C@@H](F)COC2 [Compound 309]
13 | 14.40 | 9.9 | 143 | COc1nc([C@@H](F)C(F)F)ccc1-c1ccc2cnc(CNC(=O)c3cc(F)c4c(c3)S(=O)(=O)[C@@H](F)CCO4)cc2n1 [Compound 298]
14 | 32.74 | 10.3 | 360 | COc1nc(C(F)F)ccc1-c1ccc2cnc(CNC(=O)c3cc(Cl)c4c(c3)S(=O)(=O)[C@@H](F)CCO4)cc2n1 [Compound 306]
15 | 29.97 | 24.1 | 723 | COc1nc([C@@H](C)C(F)F)ccc1-c1ccc2cnc(CNC(=O)c3cc(F)c4c(c3)S(=O)(=O)[C@@H](F)CCO4)cc2n1 [Compound 328]
16 | 8.51 | 12.3 | 105 | C[C@@H]1CN(c2cccc(-c3ccc4cnc(CNC(=O)c5ccc6c(c5)S(=O)(=O)[C@@H](F)CCN6C)cc4n3)n2)C[C@H](C)O1 [Compound 318]
